From ChEMBL document CHEMBL1201862, “PubChem BioAssay data set” (2004)
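96-well plates; 48 h exposure; 5 concentrations. Endpoints by linear interpolation between flanking doses. Not reached: highest tested concentration assigned. At the GI50, growth is halved.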 Calls of active or inactive are those of the source. Cut-off read from the data, not from the text of the source: active = GI50 up to about 1.1 µM and inactive = higher.

Assays:
Assay in all cases: growth of human tumour cells (NCI), 48 h
NCI-H226 = tested on: NCI-H226
NCI-H23 = tested on: NCI-H23
HT-29 = tested on: HT-29
OVCAR-8 = tested on: OVCAR-8
SN12C = tested on: SN12C
K562 = tested on: K562
M14 = tested on: M14
786-0 = tested on: 786-0
BT-549 = tested on: BT-549
UACC-62 = tested on: UACC-62
SF-539 = tested on: SF-539
SK-MEL-5 = tested on: SK-MEL-5
HL-60 = tested on: HL-60
SR = tested on: SR
LOX IMVI = tested on: LOX IMVI
SW-620 = tested on: SW-620
HCT-15 = tested on: HCT-15
HCT-116 = tested on: HCT-116
A498 = tested on: A498
HOP-62 = tested on: HOP-62
MOLT-4 = tested on: MOLT-4
UO-31 = tested on: UO-31
EKVX = tested on: EKVX
COLO 205 = tested on: COLO 205
NCI/ADR-RES = tested on: NCI/ADR-RES
DU-145 = tested on: DU-145
NCI-H460 = tested on: NCI-H460
OVCAR-5 = tested on: OVCAR-5
SK-MEL-2 = tested on: SK-MEL-2
HOP-92 = tested on: HOP-92
SK-OV-3 = tested on: SK-OV-3
U-251 = tested on: U-251
MDA-MB-231 = tested on: MDA-MB-231
SK-MEL-28 = tested on: SK-MEL-28
TK-10 = tested on: TK-10
RXF 393 = tested on: RXF 393
OVCAR-3 = tested on: OVCAR-3
KM12 = tested on: KM12
SNB-19 = tested on: SNB-19
MDA-N = tested on: MDA-N
ACHN = tested on: ACHN
SF-295 = tested on: SF-295
CCRF-CEM = tested on: CCRF-CEM
UACC-257 = tested on: UACC-257
SF-268 = tested on: SF-268
IGROV-1 = tested on: IGROV-1
CAKI-1 = tested on: CAKI-1
T47D = tested on: T47D
RPMI-8226 = tested on: RPMI-8226
SNB-75 = tested on: SNB-75
PC-3 = tested on: PC-3
MCF7 = tested on: MCF7
A549 = tested on: A549
OVCAR-4 = tested on: OVCAR-4
Malme-3M = tested on: Malme-3M
NCI-H522 = tested on: NCI-H522
MDA-MB-435 = tested on: MDA-MB-435
HCC 2998 = tested on: HCC 2998

NN/C(=N\S(=O)(=O)c1cccc2nsnc12)Nc1ccc(Cl)cc1
GI50 (NCI-H226): > 100 µM (inactive)
GI50 (NCI-H23): > 100 µM (inactive)
GI50 (HT-29): > 100 µM (inactive)
GI50 (OVCAR-8): > 100 µM (inactive)
GI50 (SN12C): > 100 µM (inactive)
GI50 (K562): > 100 µM (inactive)
GI50 (M14): > 100 µM (inactive)
GI50 (786-0): > 100 µM (inactive)
GI50 (BT-549): > 100 µM (inactive)
GI50 (UACC-62): > 100 µM (inactive)
GI50 (SF-539): > 100 µM (inactive)
GI50 (SK-MEL-5): > 100 µM (inactive)
GI50 (HL-60): 9.98 µM (inactive)
GI50 (SR): > 100 µM (inactive)
GI50 (LOX IMVI): > 100 µM (inactive)
GI50 (SW-620): > 100 µM (inactive)
GI50 (HCT-15): > 100 µM
GI50 (HCT-116): > 100 µM (inactive)
GI50 (A498): > 100 µM (inactive)
GI50 (HOP-62): > 100 µM (inactive)
GI50 (MOLT-4): 61 µM (inactive)
GI50 (UO-31): > 100 µM (inactive)
GI50 (EKVX): > 100 µM (inactive)
GI50 (COLO 205): > 100 µM (inactive)
GI50 (NCI/ADR-RES): > 100 µM (inactive)
GI50 (DU-145): > 100 µM (inactive)
GI50 (NCI-H460): > 100 µM (inactive)
GI50 (OVCAR-5): > 100 µM (inactive)
GI50 (SK-MEL-2): > 100 µM (inactive)
GI50 (HOP-92): > 100 µM (inactive)
GI50 (SK-OV-3): > 100 µM (inactive)
GI50 (U-251): > 100 µM (inactive)
GI50 (MDA-MB-231): > 100 µM (inactive)
GI50 (SK-MEL-28): > 100 µM (inactive)
GI50 (TK-10): > 100 µM (inactive)
GI50 (RXF 393): > 100 µM (inactive)
GI50 (OVCAR-3): > 100 µM (inactive)
GI50 (KM12): > 100 µM (inactive)
GI50 (SNB-19): > 100 µM (inactive)
GI50 (MDA-N): > 100 µM (inactive)
GI50 (ACHN): > 100 µM (inactive)
GI50 (SF-295): > 100 µM (inactive)
GI50 (CCRF-CEM): > 100 µM (inactive)
GI50 (UACC-257): > 100 µM (inactive)
GI50 (SF-268): 26.2 µM (inactive)
GI50 (IGROV-1): > 100 µM (inactive)
GI50 (CAKI-1): > 100 µM (inactive)
GI50 (T47D): 48.6 µM (inactive)
GI50 (RPMI-8226): > 100 µM (inactive)
GI50 (SNB-75): 65.9 µM (inactive)
GI50 (PC-3): > 100 µM (inactive)
GI50 (MCF7): > 100 µM (inactive)
GI50 (A549): > 100 µM (inactive)
GI50 (OVCAR-4): > 100 µM (inactive)

CC(C)CC(NC(=O)OCc1ccccc1)C(=O)NCCCCC(N)C(=O)NC(CCCCNC(=O)C(CC(C)C)NC(=O)OCc1ccccc1)C(=O)NC(CCCCNC(=O)C(CC(C)C)NC(=O)OCc1ccccc1)C(=O)NC(CCCCNC(=O)C(CC(C)C)NC(=O)OCc1ccccc1)C(=O)NC(CCCCNC(=O)C(CC(C)C)NC(=O)OCc1ccccc1)C(=O)NC(CCCCNC(=O)C(CC(C)C)NC(=O)OCc1ccccc1)C(=O)O (stereo not given)
GI50 (NCI-H226): > 100 µM (inactive)
GI50 (NCI-H23): > 100 µM (inactive)
GI50 (HT-29): > 100 µM (inactive)
GI50 (OVCAR-8): > 100 µM (inactive)
GI50 (SN12C): > 100 µM (inactive)
GI50 (K562): > 100 µM (inactive)
GI50 (786-0): > 100 µM (inactive)
GI50 (BT-549): > 100 µM (inactive)
GI50 (UACC-62): > 100 µM (inactive)
GI50 (SK-MEL-5): > 100 µM (inactive)
GI50 (HL-60): > 100 µM (inactive)
GI50 (SR): > 100 µM (inactive)
GI50 (LOX IMVI): 88.5 µM (inactive)
GI50 (SW-620): > 100 µM (inactive)
GI50 (HCT-15): > 100 µM
GI50 (HCT-116): > 100 µM (inactive)
GI50 (A498): > 100 µM (inactive)
GI50 (HOP-62): > 100 µM (inactive)
GI50 (MOLT-4): > 100 µM (inactive)
GI50 (UO-31): > 100 µM (inactive)
GI50 (DU-145): > 100 µM (inactive)
GI50 (NCI-H460): > 100 µM (inactive)
GI50 (OVCAR-5): > 100 µM (inactive)
GI50 (SK-MEL-2): > 100 µM (inactive)
GI50 (U-251): > 100 µM (inactive)
GI50 (MDA-MB-231): > 100 µM (inactive)
GI50 (TK-10): > 100 µM (inactive)
GI50 (OVCAR-3): > 100 µM (inactive)
GI50 (Malme-3M): > 100 µM (inactive)
GI50 (SNB-19): > 100 µM (inactive)
GI50 (MDA-N): > 100 µM (inactive)
GI50 (ACHN): > 100 µM (inactive)
GI50 (CCRF-CEM): > 100 µM (inactive)
GI50 (UACC-257): > 100 µM (inactive)
GI50 (NCI-H522): > 100 µM (inactive)
GI50 (IGROV-1): > 100 µM (inactive)
GI50 (T47D): > 100 µM (inactive)
GI50 (MDA-MB-435): > 100 µM (inactive)
GI50 (RPMI-8226): > 100 µM (inactive)
GI50 (HCC 2998): > 100 µM (inactive)
GI50 (PC-3): > 100 µM (inactive)
GI50 (MCF7): > 100 µM (inactive)
GI50 (A549): > 100 µM (inactive)
GI50 (OVCAR-4): > 100 µM (inactive)

N#C[BH2-][n+]1cn(C2CC(O)C(COP(=O)(O)OC3CC(n4cnc5c(N)ncnc54)OC3CO)O2)c2nc(N)[nH]c(=O)c21 (stereo not given)
GI50 (NCI-H226): > 100 µM (inactive)
GI50 (NCI-H23): > 100 µM (inactive)
GI50 (HT-29): > 100 µM (inactive)
GI50 (OVCAR-8): > 100 µM (inactive)
GI50 (SN12C): > 100 µM (inactive)
GI50 (M14): > 100 µM (inactive)
GI50 (786-0): > 100 µM (inactive)
GI50 (BT-549): > 100 µM (inactive)
GI50 (UACC-62): > 100 µM (inactive)
GI50 (SF-539): > 100 µM (inactive)
GI50 (SK-MEL-5): > 100 µM (inactive)
GI50 (HL-60): > 100 µM (inactive)
GI50 (SR): > 100 µM (inactive)
GI50 (SW-620): > 100 µM (inactive)
GI50 (HCT-15): > 100 µM
GI50 (HCT-116): > 100 µM (inactive)
GI50 (A498): > 100 µM (inactive)
GI50 (HOP-62): > 100 µM (inactive)
GI50 (UO-31): > 100 µM (inactive)
GI50 (EKVX): > 100 µM (inactive)
GI50 (COLO 205): > 100 µM (inactive)
GI50 (NCI/ADR-RES): > 100 µM (inactive)
GI50 (DU-145): > 100 µM (inactive)
GI50 (NCI-H460): > 100 µM (inactive)
GI50 (OVCAR-5): > 100 µM (inactive)
GI50 (SK-MEL-2): > 100 µM (inactive)
GI50 (HOP-92): > 100 µM (inactive)
GI50 (U-251): > 100 µM (inactive)
GI50 (MDA-MB-231): > 100 µM (inactive)
GI50 (SK-MEL-28): > 100 µM (inactive)
GI50 (RXF 393): > 100 µM (inactive)
GI50 (OVCAR-3): > 100 µM (inactive)
GI50 (KM12): > 100 µM (inactive)
GI50 (Malme-3M): > 100 µM (inactive)
GI50 (SNB-19): > 100 µM (inactive)
GI50 (MDA-N): > 100 µM (inactive)
GI50 (ACHN): > 100 µM (inactive)
GI50 (SF-295): > 100 µM (inactive)
GI50 (CCRF-CEM): > 100 µM (inactive)
GI50 (UACC-257): > 100 µM (inactive)
GI50 (SF-268): > 100 µM (inactive)
GI50 (NCI-H522): > 100 µM (inactive)
GI50 (IGROV-1): > 100 µM (inactive)
GI50 (CAKI-1): > 100 µM (inactive)
GI50 (T47D): > 100 µM (inactive)
GI50 (MDA-MB-435): > 100 µM (inactive)
GI50 (HCC 2998): > 100 µM (inactive)
GI50 (SNB-75): > 100 µM (inactive)
GI50 (PC-3): > 100 µM (inactive)
GI50 (MCF7): > 100 µM (inactive)
GI50 (A549): > 100 µM (inactive)
GI50 (OVCAR-4): > 100 µM (inactive)
